Test results: ChEMBL document CHEMBL5729517, “BTK inhibitor compounds” (2023)

Columns and labels:
[1] = biological target: Tyrosine-protein kinase BTK (Homo sapiens, UniProt Q06187); assay: BTK and EGFR in Vitro Assay: The BTK and EGFR biochemical assays utilize LANTHASCREEN® Eu Kinase Binding Assays from Thermo Fisher Scientific, measuring the binding of the kinase with a […] tracer. The assay buffer consists of 50 mM HEPES pH 7.5, 0.01% BRU™-35, 10 mM MgCl2, 1 mM EGTA, and 1 mM DTT. The test compounds are diluted and added to the assay plate with a Labcyte ECHO® 555 liquid handler. The compounds are tested in 10 point dose response curves (100 μM-0.005 μM) with a maximum DMSO concentration of 1%. The assays are performed in 20 μL in low-volume 384-well white proxiplates. For the BTK assay, the concentration of full-length His-labeled BTK in the assay is 5 nM, the Eu-anti-His antibody is 2 nM, and the kinase tracer 236 is 60 nM. For the EGFR assay, the concentration of truncated (amino acids 668-1210) GST-labeled EGFR is 5 nM, the Eu-anti-GST antibody is 2 nM, and the kinase tracer 199 is 10 nM. The components of the assay (compound, enzyme/antibody, tracer) are assembled and incubated for 30 min prior to being read on a Perkin-Elmer EnVision with excitation at 340 nm, tracer emission at 665 nm, and antibody emission at 615 nm. The signal ratio is converted to percent inhibition using the following equation: % Inhibition=100−[(Test Compound−Median Minimum)/(Median Maximum−Median Minimum)×100].
[2] = biological target: Epidermal growth factor receptor (Homo sapiens, UniProt P00533); assay: BTK and EGFR in Vitro Assay: The BTK and EGFR biochemical assays utilize LANTHASCREEN® Eu Kinase Binding Assays from Thermo Fisher Scientific, measuring the binding of the kinase with a fluorinated tracer. The assay buffer consists of 50 mM HEPES pH 7.5, 0.01% BRU™-35, 10 mM MgCl2, 1 mM EGTA, and 1 mM DTT. […] The compounds are tested in 10 point dose response curves (100 μM-0.005 μM) with a maximum DMSO concentration of 1%. The assays are performed in 20 μL in low-volume 384-well white proxiplates. […] The signal ratio is converted to percent inhibition using the following equation: % Inhibition=100−[(Test Compound−Median Minimum)/(Median Maximum−Median Minimum)×100].
Epidermal growth factor receptor, sequence (P00533 whole entry): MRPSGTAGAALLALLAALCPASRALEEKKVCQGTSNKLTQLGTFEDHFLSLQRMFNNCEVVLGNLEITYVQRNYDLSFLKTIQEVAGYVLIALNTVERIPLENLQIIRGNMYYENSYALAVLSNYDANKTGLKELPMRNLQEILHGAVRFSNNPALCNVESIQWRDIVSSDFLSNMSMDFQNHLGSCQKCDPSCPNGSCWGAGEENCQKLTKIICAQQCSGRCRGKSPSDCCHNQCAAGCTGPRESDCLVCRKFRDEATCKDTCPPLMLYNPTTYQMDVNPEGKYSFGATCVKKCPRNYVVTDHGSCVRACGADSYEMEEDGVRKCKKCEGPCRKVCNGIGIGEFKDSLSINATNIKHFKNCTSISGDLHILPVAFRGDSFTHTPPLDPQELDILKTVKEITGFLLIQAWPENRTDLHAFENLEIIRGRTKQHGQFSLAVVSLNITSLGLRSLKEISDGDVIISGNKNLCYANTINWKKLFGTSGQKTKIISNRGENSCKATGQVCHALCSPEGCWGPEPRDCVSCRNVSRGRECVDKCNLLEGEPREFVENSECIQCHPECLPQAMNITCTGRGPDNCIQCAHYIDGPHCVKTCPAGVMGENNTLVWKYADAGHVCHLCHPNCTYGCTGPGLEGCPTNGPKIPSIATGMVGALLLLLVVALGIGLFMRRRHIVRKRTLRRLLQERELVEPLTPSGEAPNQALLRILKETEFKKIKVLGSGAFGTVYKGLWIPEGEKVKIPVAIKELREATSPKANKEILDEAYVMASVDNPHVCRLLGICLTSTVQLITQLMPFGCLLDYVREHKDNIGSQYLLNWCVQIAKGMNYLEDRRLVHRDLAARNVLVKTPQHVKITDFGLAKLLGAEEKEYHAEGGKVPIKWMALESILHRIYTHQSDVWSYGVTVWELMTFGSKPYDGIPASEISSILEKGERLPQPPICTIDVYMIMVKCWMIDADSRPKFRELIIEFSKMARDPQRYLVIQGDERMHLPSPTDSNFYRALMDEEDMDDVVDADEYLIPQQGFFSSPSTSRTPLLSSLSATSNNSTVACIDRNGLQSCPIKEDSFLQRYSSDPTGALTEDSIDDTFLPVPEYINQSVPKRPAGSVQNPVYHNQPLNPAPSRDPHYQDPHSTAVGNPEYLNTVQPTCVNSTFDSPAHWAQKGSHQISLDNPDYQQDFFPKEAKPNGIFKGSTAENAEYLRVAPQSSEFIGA

Tyrosine-protein kinase BTK, sequence (Q06187 whole entry, the tested form may be a part): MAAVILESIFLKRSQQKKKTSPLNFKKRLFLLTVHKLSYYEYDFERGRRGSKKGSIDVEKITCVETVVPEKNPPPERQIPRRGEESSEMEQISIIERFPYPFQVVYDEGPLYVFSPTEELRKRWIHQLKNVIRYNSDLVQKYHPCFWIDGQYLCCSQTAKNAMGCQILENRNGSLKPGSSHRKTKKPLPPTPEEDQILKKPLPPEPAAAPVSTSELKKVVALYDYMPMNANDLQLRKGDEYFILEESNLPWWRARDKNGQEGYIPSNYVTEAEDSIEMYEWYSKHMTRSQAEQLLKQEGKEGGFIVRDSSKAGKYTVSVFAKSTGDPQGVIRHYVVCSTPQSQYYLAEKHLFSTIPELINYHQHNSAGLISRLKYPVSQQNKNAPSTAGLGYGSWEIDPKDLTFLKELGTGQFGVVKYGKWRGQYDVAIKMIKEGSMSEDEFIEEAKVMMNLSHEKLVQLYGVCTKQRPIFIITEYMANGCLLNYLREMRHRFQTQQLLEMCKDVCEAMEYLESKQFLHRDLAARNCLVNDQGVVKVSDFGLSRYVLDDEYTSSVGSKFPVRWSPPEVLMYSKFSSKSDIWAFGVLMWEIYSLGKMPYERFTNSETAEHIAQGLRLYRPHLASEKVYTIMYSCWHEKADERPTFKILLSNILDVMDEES

Row | IC50 [1] | IC50 [2] | SMILES
1 | 0.00608 µM | 8.65 µM | C=CC(=O)N1CC[C@H](Nc2cncc(-c3cnc(Nc4cccc(OC(F)F)c4)nc3)c2)C1
2 | 0.0329 µM | 16.1 µM | C=CC(=O)N1CC[C@H](Nc2cncc(-c3cnc(Nc4cccc(C)n4)nc3)c2)C1
3 | 0.0555 µM | 28.5 µM | C=CC(=O)N1CC[C@H](Nc2cncc(-c3cnc(Oc4cccc(OC(F)F)c4)nc3)c2)C1
4 | 0.0758 µM | 6.52 µM | C=CC(=O)N1CC(Nc2cncc(-c3cnc(Oc4cccc(C#N)c4)nc3)c2)C1
